The values that follow come from patent US20230348444A1, “NOVEL COMPOUNDS FOR USE IN THE TREATMENT OF DISEASES ASSOCIATED WITH ANGIOTENSIN II” (Vicore Pharma AB, priority 2020, published 2023).

Like-named read-outs stand apart in the source and are kept apart here.

Data set [1] addresses T1, human recombinant AT1 receptor (Homo sapiens, UniProt P30556).
T1 sequence (P30556 1-359): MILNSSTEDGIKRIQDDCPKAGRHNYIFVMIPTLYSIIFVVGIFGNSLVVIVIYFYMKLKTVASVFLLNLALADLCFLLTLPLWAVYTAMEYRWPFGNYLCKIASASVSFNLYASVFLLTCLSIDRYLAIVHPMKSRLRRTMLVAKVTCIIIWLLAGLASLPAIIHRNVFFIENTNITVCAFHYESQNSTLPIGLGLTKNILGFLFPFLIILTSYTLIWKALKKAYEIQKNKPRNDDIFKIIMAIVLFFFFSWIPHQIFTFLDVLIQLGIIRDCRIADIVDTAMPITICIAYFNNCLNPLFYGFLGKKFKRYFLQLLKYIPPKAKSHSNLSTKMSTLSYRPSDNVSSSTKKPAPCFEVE
As to the kind of experiment: biochemical.
Procedure: Compounds were evaluated for binding to the human recombinant AT2 and AT1 receptor according to Eurofins protocol ITEM26 and ITEM24 using a radiometric scintillation assay.

Data set [2] concerns the target T2, human recombinant AT2 receptor (Homo sapiens, UniProt P50052).
T2 sequence (P50052 1-363): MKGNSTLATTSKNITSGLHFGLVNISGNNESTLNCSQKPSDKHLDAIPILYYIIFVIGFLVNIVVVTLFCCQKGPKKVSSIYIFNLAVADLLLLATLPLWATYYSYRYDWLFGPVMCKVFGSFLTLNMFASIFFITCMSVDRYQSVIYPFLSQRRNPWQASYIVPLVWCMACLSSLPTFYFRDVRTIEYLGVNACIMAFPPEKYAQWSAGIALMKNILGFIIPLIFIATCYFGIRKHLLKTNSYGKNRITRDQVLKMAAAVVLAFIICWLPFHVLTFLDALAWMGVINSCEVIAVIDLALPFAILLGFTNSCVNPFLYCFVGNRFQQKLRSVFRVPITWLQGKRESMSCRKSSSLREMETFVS
Put plainly: biochemical.

The subject of the next data set is CYP3A4&5. As to the kind of experiment: CYP inhibition in human liver microsomes (Eurofins protocol ITEMG232), testosterone substrate. It is filed as in vitro ADME. Conditions: probe testosterone, read-out: CYP3A4&5 testosterone Inh %. How it is done:
(§1) The following substrates were used; CYP1A phenacetin, CYP2B6 bupropion, CYP2C8 paclitaxel and amodiaquine, CYP2C9 diclofenac, CYP2C19 omeprazole, CYP2D6 dextromethorphan, CYP3A midazolam and testosterone.
(§2) At the end of the incubation, the formation of metabolite was monitored by HPLC-MS/MS as the peak area response.

The target of another data set is T3, CYP1A (Homo sapiens, UniProt P05177).
T3 construct: using isoform-specific substrates incubated with human liver microsomes; tissue Eurofins ITEMG232; host or cells: human liver microsomes
T3 sequence (P05177 2-516 limits assumed): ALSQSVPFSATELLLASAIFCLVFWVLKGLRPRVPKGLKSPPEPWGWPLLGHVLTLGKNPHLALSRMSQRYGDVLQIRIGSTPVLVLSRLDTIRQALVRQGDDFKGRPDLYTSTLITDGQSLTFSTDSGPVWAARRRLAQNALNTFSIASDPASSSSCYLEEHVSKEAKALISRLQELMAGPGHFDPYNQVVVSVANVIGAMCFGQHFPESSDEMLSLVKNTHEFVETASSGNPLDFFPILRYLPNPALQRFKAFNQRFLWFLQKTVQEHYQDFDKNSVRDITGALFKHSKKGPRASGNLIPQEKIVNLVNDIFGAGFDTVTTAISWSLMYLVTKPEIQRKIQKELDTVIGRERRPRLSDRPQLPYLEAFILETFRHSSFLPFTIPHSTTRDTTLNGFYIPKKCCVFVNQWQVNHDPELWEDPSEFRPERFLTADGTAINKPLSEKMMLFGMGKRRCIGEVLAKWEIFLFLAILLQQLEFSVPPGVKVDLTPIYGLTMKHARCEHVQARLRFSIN
As to the kind of experiment: CYP inhibition in human liver microsomes (Eurofins protocol ITEMG232). The following applies: substrate phenacetin; for inhibition at 10 µM: probe phenacetin, read-out: CYP1A Inh %. In kind it is in vitro ADME. On the procedure:
as §1, §2
In general terms: Liver microsomes are vesicles of endoplasmic reticulum, rich in cytochrome P450 enzymes.

The next data set addresses T4, CYP2B6 (Homo sapiens, UniProt P20813).
T4 construct: using isoform-specific substrates incubated with human liver microsomes; tissue Eurofins ITEMG232; host or cells: human liver microsomes
T4 sequence (P20813 1-491): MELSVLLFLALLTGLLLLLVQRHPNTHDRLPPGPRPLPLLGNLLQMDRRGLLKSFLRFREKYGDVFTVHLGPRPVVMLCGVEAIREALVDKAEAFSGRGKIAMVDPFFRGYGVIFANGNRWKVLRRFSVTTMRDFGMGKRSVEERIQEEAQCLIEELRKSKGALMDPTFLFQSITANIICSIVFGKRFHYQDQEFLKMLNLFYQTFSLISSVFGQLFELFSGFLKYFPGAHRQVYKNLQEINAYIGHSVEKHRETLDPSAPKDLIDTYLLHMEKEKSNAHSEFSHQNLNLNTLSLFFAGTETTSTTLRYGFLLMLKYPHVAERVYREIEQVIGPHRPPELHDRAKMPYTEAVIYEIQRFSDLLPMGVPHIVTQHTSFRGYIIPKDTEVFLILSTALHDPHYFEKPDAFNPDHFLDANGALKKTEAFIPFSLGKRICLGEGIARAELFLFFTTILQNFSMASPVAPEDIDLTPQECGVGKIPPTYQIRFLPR
The description is as above. It is filed as in vitro ADME. Conditions: substrate bupropion; for inhibition at 10 µM: probe bupropion, read-out: CYP2B6 Inh %. How it is done:
as §1, §2

Another data set has as its target T5, CYP2D6 (Homo sapiens, UniProt P10635).
T5 construct: tissue Eurofins ITEMG232; host or cells: human liver microsomes
The description is as above. Conditions: substrate dextromethorphan; for inhibition at 10 µM: probe dextromethorphan, read-out: CYP2D6 Inh %. It is filed as in vitro ADME. On the procedure:
as §1, §2

The target in another data set is T6, CYP2C8 (Homo sapiens, UniProt P10632).
T6 construct: using isoform-specific substrates incubated with human liver microsomes; tissue Eurofins ITEMG232; host or cells: human liver microsomes
T6 sequence (P10632 1-490): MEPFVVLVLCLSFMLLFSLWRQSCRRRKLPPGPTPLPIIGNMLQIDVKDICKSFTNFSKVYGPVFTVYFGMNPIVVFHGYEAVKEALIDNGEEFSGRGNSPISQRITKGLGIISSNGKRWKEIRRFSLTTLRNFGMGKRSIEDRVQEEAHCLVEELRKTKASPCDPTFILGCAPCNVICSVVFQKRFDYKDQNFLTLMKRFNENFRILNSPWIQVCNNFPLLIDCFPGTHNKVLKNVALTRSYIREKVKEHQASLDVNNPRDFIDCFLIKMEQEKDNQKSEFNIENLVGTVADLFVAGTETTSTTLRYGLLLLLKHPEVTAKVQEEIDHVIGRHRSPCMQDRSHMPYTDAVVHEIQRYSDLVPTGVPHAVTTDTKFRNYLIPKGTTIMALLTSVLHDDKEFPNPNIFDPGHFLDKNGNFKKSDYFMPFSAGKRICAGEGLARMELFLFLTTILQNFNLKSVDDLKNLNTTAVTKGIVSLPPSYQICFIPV
Described as above. In kind it is in vitro ADME. Conditions: substrates paclitaxel and amodiaquine; for inhibition at 10 µM: probe paclitaxel and amodiaquine, read-out: CYP2C8 Inh %. How it is done: as §1, §2

For another data set, the target named is T7, CYP2C19 (Homo sapiens, UniProt P33261).
T7 construct: using isoform-specific substrates incubated with human liver microsomes; tissue Eurofins ITEMG232; host or cells: human liver microsomes
The description is as above. In kind it is in vitro ADME. Conditions: probe omeprazole, substrate omeprazole, read-out: CYP2C19 Inh %. How it is done: as §1, §2

In data set [3] the target is T8, CYP2C9 (Homo sapiens, UniProt P11712). Described as above. In kind it is in vitro ADME. Set-up: using isoform-specific substrates incubated with human liver microsomes; tissue Eurofins ITEMG232; host or cells: human liver microsomes. The following applies: probe diclofenac, substrate diclofenac, read-out: CYP2C9 Inh %. How it is done: as §1, §2
Data set [4] concerns the target T9, CYP3A4 (Homo sapiens, UniProt P08684). Put plainly: CYP inhibition in human liver microsomes (Eurofins protocol ITEMG232), midazolam substrate. It is filed as in vitro ADME. Set-up: using isoform-specific substrates incubated with human liver microsomes; tissue Eurofins ITEMG232; host or cells: human liver microsomes. The following applies: for inhibition at 10 µM: probe midazolam, read-out: CYP3A4 midazolam Inh %. On the procedure: as §1, §2

Data set [5] in a line: Metabolic stability in pooled human liver microsomes with or without NADPH. In kind it is in vitro ADME. Conditions: human, pooled human liver microsomes, pooled human liver microsomes 0.5 mg/mL in PBS, 1 uM test compound, 37° C. On the procedure: Pooled human liver microsomes in PBS at a concentration of 0.5 mg/mL was incubated with or without 1 mM NADPH for 70 min at 37° C. Test compound was added after 10 minutes to a final concentration of 1 uM. Samples were withdrawn at 0, 5, 15 and 60 minutes and added to test tubes containing acetonitrile, to stop the reaction, and with terfenadine, used as internal standard. After centrifugation at 10000×g for 5 minutes the supernatant was diluted 1:1 with 1% formic acid. Samples were separated on a reverse phase column and detected by triple quadrupole MSMS (Agilant model 6540). The concentration of the parent compound at the different time points was measured with an external standard curve using terfenadine as internal standard and the initial metabolic rate in the presence or absence of NADPH calculated.

Data set [6] in a line: Metabolic hydrolysis of C21 found during development. It is filed as in vitro ADME. The following applies: statement in words.
Data set [7] concerns the target T8, CYP2C9. Put plainly: CYP inhibition of C21 found during development. The following applies: statement in words. In kind it is in vitro ADME.
Data set [8] concerns the target T9, CYP3A4. Put plainly: CYP inhibition of C21 found during development. It is filed as in vitro ADME. The following applies: statement in words.
The mark [9] stands for this setting: with 1 mM NADPH, read-out: T1/2, +NaDPH.
The mark [10] stands for this setting: without NADPH, read-out: T1/2, no NaDPH.

T5 sequence (P10635 whole entry): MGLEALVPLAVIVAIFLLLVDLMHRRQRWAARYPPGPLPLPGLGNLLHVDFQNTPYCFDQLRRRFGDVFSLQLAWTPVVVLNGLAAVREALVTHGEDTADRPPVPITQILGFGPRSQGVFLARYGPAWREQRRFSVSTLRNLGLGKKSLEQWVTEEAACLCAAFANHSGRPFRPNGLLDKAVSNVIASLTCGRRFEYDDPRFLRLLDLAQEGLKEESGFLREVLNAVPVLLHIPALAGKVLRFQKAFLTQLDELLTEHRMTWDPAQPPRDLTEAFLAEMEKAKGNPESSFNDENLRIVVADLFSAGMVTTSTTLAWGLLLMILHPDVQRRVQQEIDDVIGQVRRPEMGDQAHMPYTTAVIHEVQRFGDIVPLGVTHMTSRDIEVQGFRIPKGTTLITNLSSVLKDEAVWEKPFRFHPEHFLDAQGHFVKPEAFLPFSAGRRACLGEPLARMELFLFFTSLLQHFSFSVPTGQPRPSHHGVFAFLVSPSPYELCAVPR
T9 sequence (P08684 whole entry, canonical isoform): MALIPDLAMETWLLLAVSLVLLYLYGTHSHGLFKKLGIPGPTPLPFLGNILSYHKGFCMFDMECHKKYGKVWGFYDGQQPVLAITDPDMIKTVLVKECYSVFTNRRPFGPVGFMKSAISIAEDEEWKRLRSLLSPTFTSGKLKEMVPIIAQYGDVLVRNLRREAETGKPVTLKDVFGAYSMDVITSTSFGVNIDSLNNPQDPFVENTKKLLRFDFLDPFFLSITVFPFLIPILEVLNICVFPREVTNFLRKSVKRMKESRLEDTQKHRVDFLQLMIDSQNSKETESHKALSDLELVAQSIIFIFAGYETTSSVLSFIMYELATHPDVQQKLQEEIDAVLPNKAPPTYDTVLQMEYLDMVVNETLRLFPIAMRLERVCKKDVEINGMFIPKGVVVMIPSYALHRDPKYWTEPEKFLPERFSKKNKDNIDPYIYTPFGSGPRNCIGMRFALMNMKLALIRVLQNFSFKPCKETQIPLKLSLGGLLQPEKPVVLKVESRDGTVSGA
T8 sequence (P11712 whole entry, canonical isoform): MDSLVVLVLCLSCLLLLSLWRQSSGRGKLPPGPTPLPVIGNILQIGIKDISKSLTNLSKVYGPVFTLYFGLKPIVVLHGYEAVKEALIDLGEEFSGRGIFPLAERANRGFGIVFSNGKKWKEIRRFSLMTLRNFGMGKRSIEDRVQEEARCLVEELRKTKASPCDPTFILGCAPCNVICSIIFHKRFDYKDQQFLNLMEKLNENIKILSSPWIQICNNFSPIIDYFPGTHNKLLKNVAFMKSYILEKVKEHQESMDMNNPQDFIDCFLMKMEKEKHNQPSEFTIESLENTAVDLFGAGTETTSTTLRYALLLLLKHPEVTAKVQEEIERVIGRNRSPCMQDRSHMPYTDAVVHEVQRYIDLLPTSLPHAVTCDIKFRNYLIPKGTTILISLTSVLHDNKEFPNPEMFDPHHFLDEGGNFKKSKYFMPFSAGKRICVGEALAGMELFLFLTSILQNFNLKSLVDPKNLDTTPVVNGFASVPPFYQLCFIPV
T7 sequence (P33261 whole entry, canonical isoform): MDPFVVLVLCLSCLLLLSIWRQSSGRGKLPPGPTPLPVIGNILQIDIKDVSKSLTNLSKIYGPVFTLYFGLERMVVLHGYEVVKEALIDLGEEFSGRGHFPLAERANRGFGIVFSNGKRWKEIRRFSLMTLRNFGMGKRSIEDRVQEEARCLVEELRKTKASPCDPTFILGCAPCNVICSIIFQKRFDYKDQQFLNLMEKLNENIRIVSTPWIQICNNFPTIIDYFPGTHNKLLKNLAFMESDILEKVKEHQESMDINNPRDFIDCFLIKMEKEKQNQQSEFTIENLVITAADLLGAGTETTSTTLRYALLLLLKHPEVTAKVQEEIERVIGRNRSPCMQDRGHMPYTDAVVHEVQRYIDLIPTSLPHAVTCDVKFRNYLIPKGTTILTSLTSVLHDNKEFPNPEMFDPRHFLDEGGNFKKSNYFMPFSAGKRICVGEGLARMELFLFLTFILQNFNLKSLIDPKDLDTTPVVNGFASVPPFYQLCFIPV

One may read the IC50 as the point on the concentration scale where inhibition reaches its midpoint. On to `Cc1nccn1Cc1ccc(-c2cc(CC(C)C)sc2S(=O)(=O)NC(=O)OCCOc2ccccc2)cc1F` [Example 9, 2-Phenoxyethyl (3-(3-fluoro-4-((2-methylimidazol-1-yl)methyl]phenyl)-5-isobutyl-2-thienyl)sulfonylcarbamate], for which the values for the IC50 in data set [1] and in data set [2] were above 1000 nM and 3.4 nM, respectively.
Consider `Cc1nccn1Cc1ccc(-c2cc(CC(C)C)sc2S(=O)(=O)NC(=O)C(C)(C)C)cc1F` [Example 22, N-((3-(3-Fluoro-4-((2-methyl-1H-imidazol-1-yl)methyl)phenyl)-5-isobutylthiophen-2-yl)sulfonyl)pivalamide], for which the inhibition at 10 µM in the data set on CYP3A4&5 is 23.8%; on CYP1A, -15.3%; on CYP2B6, 1.6%; at CYP2D6, 18.9%; on CYP2C8, 53.9%; on CYP2C19, 45.9%. Moreover, the inhibition at 10 µM at CYP2C9 [3] stood at 23.3%; at CYP3A4 [4] it was 51.7%. Also, the half-life at 1 uM in data set [5] (setting [9]) was 29 min; in data set [5] (setting [10]), 44 min.
For the compound `CCc1nccn1Cc1ccc(-c2cc(CC(C)C)sc2S(=O)(=O)NC(=O)OC)cc1F` [Example 25, Methyl (3-(4-((2-ethyl-1H-imidazol-1-yl)methyl)-3-fluorophenyl)-5-isobutylthiophen-2-yl)sulfonylcarbamate], the inhibition at 10 µM with CYP3A4&5 came to 26.6%; on CYP1A it was 23.5%; at CYP2B6 it was 20%; at CYP2D6, 17.1%; at CYP2C8 it was 21.9%; on CYP2C19, 0.5%. Moreover, the inhibition at 10 µM was 50.4% on CYP2C9 [3] and -28.7% at CYP3A4 [4]. Besides, the half-life at 1 uM in data set [5] (setting [9]) and in data set [5] (setting [10]) was above 60 min each time.
Take `CCCCOC(=O)NS(=O)(=O)c1sc(CC(C)C)cc1-c1ccc(Cn2ccnc2)cc1` [Example C21, N-butyloxycarbonyl-3-(4-imidazol-1-ylmethylphenyl)-5-isobutylthiophene-2-sulfon-amide, reference compound]: the “hydrolysis to an inactive sulfonamide metabolite” value in data set [6] is given as “rapidly hydrolysed”. Moreover, the “inhibition of CYP 2C9” value on CYP2C9 [7] is “potent inhibitor”. Moreover, at CYP3A4 [8], the “inhibition of CYP 3A4” value is “potent inhibitor”. Besides, the inhibition at 10 µM with CYP3A4&5 was determined as 94%. The “CYP1A Inh %” value at CYP1A (10 μM) turned out to be 91%. The “CYP2B6 Inh %” value on CYP2B6 (10 μM) stood at 49%. Besides, the “CYP2D6 Inh %” value on CYP2D6 (10 μM) was found to be 81%. Further, the “CYP2C8 Inh %” value at CYP2C8 (10 μM) amounted to 80%. Besides, on CYP3A4 [4] (10 μM), the “CYP3A4 midazolam Inh %” value stood at 95%. For the same compound, the half-life at 1 uM was found to be 35 min in data set [5] (setting [9]) and 31 min in [5] (setting [10]).
